Values after ≈ are worked out from the molar mass of the structure shown.

Holding throughout (assay type): cell-based
One experiment relates to Kleb. pneumo. SK 1200. Put plainly: MIC by standard agar inclusion method (Kleb. pneumo. SK 1200).
The next experiment concerns S. aureus HH 127. Briefly: MIC by standard agar inclusion method (S. aureus HH 127). Particulars: Staphylococcus aureus, HH127.
Experiment [1] relates to Entero. aerogenes ATCC 13048. Put plainly: MIC by standard agar inclusion method (Entero. aerogenes ATCC 13048). The conditions noted are these: Klebsiella aerogenes, ATCC13048.
A further experiment concerns E. coli HH 33779. Briefly: MIC by standard agar inclusion method (E. coli HH 33779). Particulars: Escherichia coli, HH33779.
A further experiment has as its system S. aureus SK 23390. Briefly: MIC by standard agar inclusion method (S. aureus SK 23390). The conditions noted are these: Staphylococcus aureus, SK23390.
In another experiment the test system is S. aureus Villaluz. Put plainly: MIC by standard agar inclusion method (S. aureus Villaluz). The conditions noted are these: Staphylococcus aureus.
The next experiment has as its system Shigella paradysentiae. Briefly: MIC by standard agar inclusion method (Shigella paradysentiae).
The next experiment deals with Salmonella ATCC 12176. Briefly: MIC by standard agar inclusion method (Salmonella ATCC 12176). Particulars: ATCC12176.
Experiment [2] has as its system Serratia marc. ATCC 13880. Put plainly: MIC by standard agar inclusion method (Serratia marc. ATCC 13880). Particulars: ATCC13880.
The test system of another experiment is Strep. faecalis HH 34358. Briefly: MIC by standard agar inclusion method (Strep. faecalis HH 34358). Particulars: Enterococcus faecalis, HH34358.
In another experiment the test system is Pseudo. aeruginosa HH63. Briefly: MIC by standard agar inclusion method (Pseudo. aeruginosa HH63). The conditions noted are these: Pseudomonas aeruginosa.
In a further experiment the test system is Kleb. pneumo. SK 4200. Briefly: MIC by standard agar inclusion method (Kleb. pneumo. SK 4200).
The subject of another experiment is E. coli SK 12140. Briefly: MIC by standard agar inclusion method (E. coli SK 12140). Particulars: Escherichia coli, SK12140.

`Cn1nnnc1SCC1=C(C(=O)O)N2C(=O)C(NC(=O)CSCC(F)(F)F)[C@H]2SC1` (some centres unmarked) [Compound 3, 7-Trifluoroethylmercaptoacetamido-3-(1-methyltetrazol-5-ylthiomethyl)-3-cephem-4-carboxylic acid]: the MIC – broadly, the least concentration at which growth counts as inhibited – stood at 1.6 mg/L (≈ 3.3 µM) in the experiment on Kleb. pneumo. SK 1200; 0.2 mg/L (≈ 0.413 µM) against S. aureus HH 127; 6.3 mg/L (≈ 13 µM) in [1]; 6.3 mg/L (≈ 13 µM) in the experiment with E. coli HH 33779; 0.1 mg/L (≈ 0.206 µM) against S. aureus SK 23390; 12.5 mg/L (≈ 25.8 µM) in the experiment with S. aureus Villaluz. Besides, the MIC with Shigella paradysentiae is 0.4 mg/L (≈ 0.826 µM); against Salmonella ATCC 12176, 0.8 mg/L (≈ 1.65 µM); in [2], > 200 mg/L; against Strep. faecalis HH 34358, 12.5 mg/L (≈ 25.8 µM); against Pseudo. aeruginosa HH63 it was > 200 mg/L; with Kleb. pneumo. SK 4200, 3.1 mg/L (≈ 6.4 µM). The MIC in the experiment with E. coli SK 12140 came to 1.6 mg/L (≈ 3.3 µM).

For the molecule `Cc1nnc(SCC2=C(C(=O)O)N3C(=O)C(NC(=O)CSCC(F)(F)F)[C@H]3SC2)s1` (some centres unmarked) [Compound 2, 7-Trifluoroethylmercaptoacetamido-3-(5-methyl-1,3,4-thiadiazol-2-ylthiomethyl)-3-cephem-4-carboxylic acid], the minimal inhibitory concentration (MIC) against Kleb. pneumo. SK 1200 came to 3.1 mg/L (≈ 6.19 µM); with S. aureus HH 127, 0.2 mg/L (≈ 0.4 µM); in [1], 25 mg/L (≈ 49.9 µM); against E. coli HH 33779 it was 12.5 mg/L (≈ 25 µM); in the experiment with S. aureus SK 23390, 0.1 mg/L (≈ 0.2 µM); in the experiment with S. aureus Villaluz, 25 mg/L (≈ 49.9 µM). For the same molecule, the MIC with Shigella paradysentiae was 1.6 mg/L (≈ 3.2 µM); against Salmonella ATCC 12176, 6.3 mg/L (≈ 12.6 µM); in experiment [2], > 200 mg/L; with Strep. faecalis HH 34358 it was 6.3 mg/L (≈ 12.6 µM); against Pseudo. aeruginosa HH63 it was > 200 mg/L; against Kleb. pneumo. SK 4200 it was 6.3 mg/L (≈ 12.6 µM). The molecule also came in with a minimal inhibitory concentration (MIC) against E. coli SK 12140 of 6.3 mg/L (≈ 12.6 µM).

On to `Cn1nnnc1SCC1=C(C(=O)O)N2C(=O)C(NC(=O)CS(=O)(=O)CC(F)(F)F)[C@H]2SC1` (some centres unmarked) [Compound 5, 7-Trifluoroethylsulfonylacetamido-3-(1-methyltetrazol-5-ylthiomethyl)-3-cephem-4-carboxylic acid], for which the minimum inhibitory concentration (MIC) against Kleb. pneumo. SK 1200 was 3.1 mg/L (≈ 6 µM); in the experiment on S. aureus HH 127 it was 3.1 mg/L (≈ 6 µM); in [1], 50 mg/L (≈ 96.8 µM); in the experiment with E. coli HH 33779, 12.5 mg/L (≈ 24.2 µM); with S. aureus SK 23390, 3.1 mg/L (≈ 6 µM); in the experiment with S. aureus Villaluz it was 200 mg/L (≈ 387 µM). The MIC against Shigella paradysentiae was 6.3 mg/L (≈ 12.2 µM); in the experiment with Salmonella ATCC 12176 it was 6.3 mg/L (≈ 12.2 µM); in [2], > 200 mg/L; against Strep. faecalis HH 34358 it was > 200 mg/L; against Pseudo. aeruginosa HH63, > 200 mg/L; in the experiment with Kleb. pneumo. SK 4200 it was 3.1 mg/L (≈ 6 µM). For the same molecule, the lowest concentration to inhibit growth against E. coli SK 12140 (MIC) was 6.3 mg/L (≈ 12.2 µM).

As for `Cn1nnnc1SCC1=C(C(=O)O)N2C(=O)C(NC(=O)C[S+]([O-])CC(F)(F)F)[C@H]2SC1` (some centres unmarked) [Compound 4, 7-Trifluoroethylsulfinylacetamido-3-(1-methyltetrazol-5-ylthiomethyl)-3-cephem-4-carboxylic acid], the MIC in the experiment with Kleb. pneumo. SK 1200 came to 0.4 mg/L (≈ 0.799 µM); with S. aureus HH 127, 1.6 mg/L (≈ 3.2 µM); in [1], 6.3 mg/L (≈ 12.6 µM); in the experiment with E. coli HH 33779 it was 3.1 mg/L (≈ 6.19 µM); in the experiment on S. aureus SK 23390, 0.8 mg/L (≈ 1.6 µM); with S. aureus Villaluz, 100 mg/L (≈ 200 µM). Further, the minimum inhibitory concentration (MIC) in the experiment on Shigella paradysentiae was 0.4 mg/L (≈ 0.799 µM); with Salmonella ATCC 12176, 1.6 mg/L (≈ 3.2 µM); in [2] it was > 200 mg/L; against Strep. faecalis HH 34358 it was 100 mg/L (≈ 200 µM); in the experiment with Pseudo. aeruginosa HH63 it was > 200 mg/L; with Kleb. pneumo. SK 4200, 0.8 mg/L (≈ 1.6 µM). The MIC in the experiment on E. coli SK 12140 stood at 0.8 mg/L (≈ 1.6 µM).

For `CC(=O)OCC1=C(C(=O)O)N2C(=O)C(NC(=O)CSCC(F)(F)F)C2SC1` (centres unmarked) [Compound 1, 7-Trifluoroethylmercaptoacetamidocephalosporanic acid], the MIC against Kleb. pneumo. SK 1200 amounted to 3.1 mg/L (≈ 7.24 µM); against S. aureus HH 127, 0.4 mg/L (≈ 0.934 µM); in experiment [1], 50 mg/L (≈ 117 µM); in the experiment with E. coli HH 33779, 50 mg/L (≈ 117 µM); in the experiment with S. aureus SK 23390, 0.4 mg/L (≈ 0.934 µM); with S. aureus Villaluz, 25 mg/L (≈ 58.4 µM). Moreover, the MIC in the experiment with Shigella paradysentiae is 6.3 mg/L (≈ 14.7 µM); against Salmonella ATCC 12176 it was 6.3 mg/L (≈ 14.7 µM); in [2], > 200 mg/L; against Strep. faecalis HH 34358, 25 mg/L (≈ 58.4 µM); in the experiment with Pseudo. aeruginosa HH63, > 200 mg/L; against Kleb. pneumo. SK 4200 it was 6.3 mg/L (≈ 14.7 µM). The MIC against E. coli SK 12140 was 6.3 mg/L (≈ 14.7 µM).

Values taken from patent publication US3998818A, “Trifluoroethylmercapto, -sulfinyl or -sulfonyl acetamidocephalosporins” (SmithKline Corporation, priority 1975, dated 1976).
